From publication PMC6597546, “Identification of a potent benzoxaborole drug candidate for treating cryptosporidiosis” (Nature Communications, 2019)
Several values for one entry are separate records, joined by “and”; a condition that tells them apart may be missing. Equal entries are not always repeated.

Test system: C. parvum (Bunch Grass Farms Iowa isolate)
Test: Neonatal calf model of cryptosporidiosis
Type: in vivo
Design: key to Oocyst Shedding, individual calves / Oocyst Shedding: C. parvum abundance per gram of fecal dry matter (qPCR); key to Fecal Consistency Score, individual calves / Fecal Consistency Score: score 1 = normal, 3 = severely abnormal
Method: All calf efficacy studies were performed as previously described. These studies were approved by the University of Vermont Institutional animal Care and Use Committee, and conducted in compliance with the USDA-APHIS “Blue Book”, available at www.aphis.usda.gov/animal-welfare. Holstein bull calves were acquired at birth from Green Mountain Dairy (Sheldon, VT), given synthetic colostrum with 200 g of IgG (Land O’Lakes, Ardent Hills, MO) and bovine coronavirus and Escherichia coli antibodies (First Defense Bolus, Immuncell Corporation, Portland, ME) within 2 h of birth, and transported to UVM. Calves were group-housed initially, and infected at 24–48 h of age during an interruption in bottle feeding by oral administration of ∼5 × 10^7 C. parvum Iowa isolate oocysts (Bunch Grass Farms, Deary, ID) suspended in 10 mL of water. They were then moved to individual raised pens, and observed twice daily at feeding times for clinical signs, which were quantified according to a previously described standardized scoring rubric. Data on fecal consistency, dehydration and overall health were collected, in each case with a score of 1 being normal and 3 being severely abnormal (scoring rubric in Supplementary Table 2). Clinical microbiologic studies for adventitious infectious agents including Salmonella culture, aerobic bacterial culture with E. coli genotyping, rotavirus, and coronavirus testing were performed on all calves at the onset of diarrhea by the Cornell Animal Health Diagnostic Center (Ithaca, NY). Animals with severe diarrhea or other symptoms were supported aggressively, including with administration of oral electrolytes, intravenous fluids and flunixin meglumine (Banamine, Merck) as needed. […] Daily fecal samples were obtained from collections bins located under each pen. Fecal samples used for parasite quantification were dried at 90 °C until stable in weight, and C. parvum abundance per gram of fecal dry matter was measured using qPCR and the primers Cp18s forward and Cp18s reverse.

[1] = 5 mg per kg twice daily oral, days 2–8
[2] = 6.67 mg/kg every 8 h for three days, Calf 1, Day 0
[3] = 6.67 mg/kg every 8 h for three days, Calf 1, Day 1
[4] = 6.67 mg/kg every 8 h for three days, Calf 1, Day 2
[5] = 6.67 mg/kg every 8 h for three days, Calf 1, Day 3
[6] = 6.67 mg/kg every 8 h for three days, Calf 1, Day 4
[7] = 6.67 mg/kg every 8 h for three days, Calf 1, Day 5
[8] = 6.67 mg/kg every 8 h for three days, Calf 1, Day 6
[9] = 6.67 mg/kg every 8 h for three days, Calf 1, Day 7
[10] = 6.67 mg/kg every 8 h for three days, Calf 1, Day 8
[11] = 6.67 mg/kg every 8 h for three days, Calf 1, Day 9
[12] = 6.67 mg/kg every 8 h for three days, Calf 1, Day 10
[13] = 6.67 mg/kg every 8 h for three days, Calf 1, Day 11
[14] = 6.67 mg/kg every 8 h for three days, Calf 1, Day 12
[15] = 6.67 mg/kg every 8 h for three days, Calf 1, Day 13
[16] = 6.67 mg/kg every 8 h for three days, Calf 1, Day 14
[17] = 6.67 mg/kg every 8 h for three days, Calf 2, Day 0
[18] = 6.67 mg/kg every 8 h for three days, Calf 2, Day 1
[19] = 6.67 mg/kg every 8 h for three days, Calf 2, Day 2
[20] = 6.67 mg/kg every 8 h for three days, Calf 2, Day 3
[21] = 6.67 mg/kg every 8 h for three days, Calf 2, Day 4
[22] = 6.67 mg/kg every 8 h for three days, Calf 2, Day 5
[23] = 6.67 mg/kg every 8 h for three days, Calf 2, Day 6
[24] = 6.67 mg/kg every 8 h for three days, Calf 2, Day 7
[25] = 6.67 mg/kg every 8 h for three days, Calf 2, Day 8
[26] = 6.67 mg/kg every 8 h for three days, Calf 2, Day 9
[27] = 6.67 mg/kg every 8 h for three days, Calf 2, Day 10
[28] = 6.67 mg/kg every 8 h for three days, Calf 2, Day 11
[29] = 6.67 mg/kg every 8 h for three days, Calf 2, Day 12
[30] = 6.67 mg/kg every 8 h for three days, Calf 2, Day 13
[31] = 6.67 mg/kg every 8 h for three days, Calf 2, Day 14
[32] = 6.67 mg/kg every 8 h for three days, Calf 3, Day 0
[33] = 6.67 mg/kg every 8 h for three days, Calf 3, Day 1
[34] = 6.67 mg/kg every 8 h for three days, Calf 3, Day 2
[35] = 6.67 mg/kg every 8 h for three days, Calf 3, Day 3
[36] = 6.67 mg/kg every 8 h for three days, Calf 3, Day 4
[37] = 6.67 mg/kg every 8 h for three days, Calf 3, Day 5
[38] = 6.67 mg/kg every 8 h for three days, Calf 3, Day 6
[39] = 6.67 mg/kg every 8 h for three days, Calf 3, Day 7
[40] = 6.67 mg/kg every 8 h for three days, Calf 3, Day 8
[41] = 6.67 mg/kg every 8 h for three days, Calf 3, Day 9
[42] = 6.67 mg/kg every 8 h for three days, Calf 3, Day 10
[43] = 6.67 mg/kg every 8 h for three days, Calf 3, Day 11
[44] = 6.67 mg/kg every 8 h for three days, Calf 3, Day 12
[45] = 6.67 mg/kg every 8 h for three days, Calf 3, Day 13
[46] = 6.67 mg/kg every 8 h for three days, Calf 3, Day 14
[47] = 10 mg per kg twice daily for 7 days begun day 4
[48] = 10 mg/kg every 12 h with delayed start, Calf 1, Day 0
[49] = 10 mg/kg every 12 h with delayed start, Calf 1, Day 1

For CC1(C)OB(O)c2cc(NC(=O)c3ccc(-n4cccn4)cc3Cl)ccc21 [AN7973], the effect on diarrhea [1] was “completely eliminated diarrhea”, the “effect on parasite shedding” value [1] was “curtailed parasite shedding” and the “AUC for the dehydration scores, individual animals” value (“AUC for the dehydration scores” below) (5 mg/kg BID) was 0. The “AUC for the diarrhea scores, individual animals” value (“AUC for the diarrhea scores” for short) (5 mg/kg BID) was 0, the “Oocyst Shedding, individual calves” value (5 mg/kg every 12 h on days 2–8, Day 0) was 100 and the “Oocyst Shedding, individual calves” value (5 mg/kg every 12 h on days 2–8, Day 1) was 100 and 583. The “Oocyst Shedding, individual calves” value (5 mg/kg every 12 h on days 2–8, Day 2) was 4179 and 2794, the “Oocyst Shedding, individual calves” value (5 mg/kg every 12 h on days 2–8, Day 3) was 46248 and 34331 and the “Oocyst Shedding, individual calves” value (5 mg/kg every 12 h on days 2–8, Day 4) was 68492 and 55772. For the same compound, the “Oocyst Shedding, individual calves” value (5 mg/kg every 12 h on days 2–8, Day 6) was 265539 and 3628, the “Oocyst Shedding, individual calves” value (5 mg/kg every 12 h on days 2–8, Day 7) was 39302 and 2599 and the “Oocyst Shedding, individual calves” value (5 mg/kg every 12 h on days 2–8, Day 8) was 43202 and 100. The “Oocyst Shedding, individual calves” value (5 mg/kg every 12 h on days 2–8, Day 9) was 146 and 100, the “Oocyst Shedding, individual calves” value (5 mg/kg every 12 h on days 2–8, Day 10) was 611 and 192 and the effect on diarrhea (6.67 mg per kg three times per day for 3 days) was “eliminated diarrhea”. The “reduction of the rate of parasite shedding during treatment” value (6.67 mg per kg three times per day for 3 days, parasitological relapse followed) was ~3 log, the “AUC for the dehydration scores” value (6.67 mg/kg TID (3 days)) was 0 and 0.3333 and the “AUC for the diarrhea scores” value (6.67 mg/kg TID (3 days)) was 0 and 1.333. The “Fecal Consistency Score” value [2] was 1, the “Oocyst Shedding” value [2] was 415 and the “Fecal Consistency Score” value [3] was 1. The “Oocyst Shedding” value [3] was 1163, the “Fecal Consistency Score” value [4] was 1 and the “Oocyst Shedding” value [4] was 989897. For the same compound, the “Fecal Consistency Score” value [5] was 1, the “Oocyst Shedding” value [5] was 285174 and the “Fecal Consistency Score” value [6] was 1. For the same compound, the “Oocyst Shedding” value [6] was 27986, the “Fecal Consistency Score” value [7] was 1 and the “Oocyst Shedding” value [7] was 2214. For the same compound, the “Fecal Consistency Score” value [8] was 1, the “Oocyst Shedding” value [8] was 10466 and the “Fecal Consistency Score” value [9] was 1. For the same compound, the “Oocyst Shedding” value [9] was 16062, the “Fecal Consistency Score” value [10] was 1 and the “Oocyst Shedding” value [10] was 525550. The “Fecal Consistency Score” value [11] was 1, the “Oocyst Shedding” value [11] was 522608 and the “Fecal Consistency Score” value [12] was 1. For the same compound, the “Oocyst Shedding” value [12] was 905562, the “Fecal Consistency Score” value [13] was 1 and the “Oocyst Shedding” value [13] was 8303500. The “Fecal Consistency Score” value [14] was 1, the “Oocyst Shedding” value [14] was 134619 and the “Fecal Consistency Score” value [15] was 1. The “Oocyst Shedding” value [15] was 473515, the “Fecal Consistency Score” value [16] was 1 and the “Oocyst Shedding” value [16] was 35244. The “Fecal Consistency Score” value [17] was 2, the “Oocyst Shedding” value [17] was 1 and the “Fecal Consistency Score” value [18] was 2. The “Oocyst Shedding” value [18] was 16497, the “Fecal Consistency Score” value [19] was 1 and the “Oocyst Shedding” value [19] was 909. For the same compound, the “Fecal Consistency Score” value [20] was 1, the “Oocyst Shedding” value [20] was 179330 and the “Fecal Consistency Score” value [21] was 1. The “Oocyst Shedding” value [21] was 38982, the “Fecal Consistency Score” value [22] was 1 and the “Oocyst Shedding” value [22] was 6563. The “Fecal Consistency Score” value [23] was 1, the “Oocyst Shedding” value [23] was 1 and the “Fecal Consistency Score” value [24] was 1. For the same compound, the “Oocyst Shedding” value [24] was 1, the “Fecal Consistency Score” value [25] was 1 and the “Oocyst Shedding” value [25] was 1. The “Fecal Consistency Score” value [26] was 1, the “Oocyst Shedding” value [26] was 1 and the “Fecal Consistency Score” value [27] was 1. For the same compound, the “Oocyst Shedding” value [27] was 162, the “Fecal Consistency Score” value [28] was 1 and the “Oocyst Shedding” value [28] was 82. The “Fecal Consistency Score” value [29] was 1, the “Oocyst Shedding” value [29] was 1213 and the “Fecal Consistency Score” value [30] was 1. For the same compound, the “Oocyst Shedding” value [30] was 387, the “Fecal Consistency Score” value [31] was 1 and the “Oocyst Shedding” value [31] was 188. For the same compound, the “Fecal Consistency Score” value [32] was 1, the “Oocyst Shedding” value [32] was 1089 and the “Fecal Consistency Score” value [33] was 1. For the same compound, the “Oocyst Shedding” value [33] was 3597, the “Fecal Consistency Score” value [34] was 1.33 and the “Oocyst Shedding” value [34] was 9022387. The “Fecal Consistency Score” value [35] was 1.67, the “Oocyst Shedding” value [35] was 2560722 and the “Fecal Consistency Score” value [36] was 1.5. The “Oocyst Shedding” value [36] was 582683, the “Fecal Consistency Score” value [37] was 1 and the “Oocyst Shedding” value [37] was 6828. The “Fecal Consistency Score” value [38] was 1, the “Oocyst Shedding” value [38] was 54223 and the “Fecal Consistency Score” value [39] was 1. The “Oocyst Shedding” value [39] was 8461, the “Fecal Consistency Score” value [40] was 1 and the “Oocyst Shedding” value [40] was 2785. For the same compound, the “Fecal Consistency Score” value [41] was 1, the “Oocyst Shedding” value [41] was 50511 and the “Fecal Consistency Score” value [42] was 1. The “Oocyst Shedding” value [42] was 198125, the “Fecal Consistency Score” value [43] was 1.33 and the “Oocyst Shedding” value [43] was 100223. For the same compound, the “Fecal Consistency Score” value [44] was 1, the “Oocyst Shedding” value [44] was 154951 and the “Fecal Consistency Score” value [45] was 1. The “Oocyst Shedding” value [45] was 141133, the “Fecal Consistency Score” value [46] was 1.5 and the “Oocyst Shedding” value [46] was 78359. The “effect on parasite shedding and diarrhea” value (10 mg per kg once daily oral, days 2–8, shedding resumed and persisted) was “reduced peak parasite shedding and diarrhea”, the parasite shedding [47] was “abolished by day 14” and the “reduction of total parasite shedding” value [47] was “greater than 1 log”. For the same compound, the “diarrhea cured faster than in controls” value (10 mg per kg twice daily for 7 days begun day 4 (peak of symptoms)) was 3 days, the “AUC for the dehydration scores” value (10 mg/kg BID (delayed start)) was 0.3333 and 0 and 0.8333 and the “AUC for the diarrhea scores” value (10 mg/kg BID (delayed start)) was 1.167 and 2.333 and 2.833. The “AUC for the dehydration scores” value (10 mg/kg QD) was 0.3333 and 0.5, the “AUC for the diarrhea scores” value (10 mg/kg QD) was 2.5 and 1.833 and 2.167 and the “Fecal Consistency Score” value [48] was 1.67. For the same compound, the “Oocyst Shedding” value [48] was 1, the “Fecal Consistency Score” value [49] was 2 and the “Oocyst Shedding” value [49] was 735.
